According to patent publication US10060908B2, “Oxidized cardiolipin as a pro-inflammatory factor” (MEDIRISTA BIOTECHNOLOGIES AB, priority 2008, dated 2018):

T1: Annexin A5 (Homo sapiens, UniProt P08758)
T1 construct: purchased Bender MedSystems GmbH, Austria
T1 sequence (P08758 1-320): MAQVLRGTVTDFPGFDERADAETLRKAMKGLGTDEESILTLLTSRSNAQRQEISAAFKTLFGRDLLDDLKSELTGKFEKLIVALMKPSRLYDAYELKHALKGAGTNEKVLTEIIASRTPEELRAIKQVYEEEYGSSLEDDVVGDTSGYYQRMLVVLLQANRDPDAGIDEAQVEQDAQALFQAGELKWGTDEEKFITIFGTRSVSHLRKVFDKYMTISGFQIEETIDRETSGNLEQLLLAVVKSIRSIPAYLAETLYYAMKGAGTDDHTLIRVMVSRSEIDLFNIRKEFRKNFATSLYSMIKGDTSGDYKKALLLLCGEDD

B1: Annexin A5: member of the Annexin superfamily with anti-thrombotic properties; from Bender MedSystems (protein, UniProt P08758 2-320, looked up)
Annexin A5: AQVLRGTVTDFPGFDERADAETLRKAMKGLGTDEESILTLLTSRSNAQRQEISAAFKTLFGRDLLDDLKSELTGKFEKLIVALMKPSRLYDAYELKHALKGAGTNEKVLTEIIASRTPEELRAIKQVYEEEYGSSLEDDVVGDTSGYYQRMLVVLLQANRDPDAGIDEAQVEQDAQALFQAGELKWGTDEEKFITIFGTRSVSHLRKVFDKYMTISGFQIEETIDRETSGNLEQLLLAVVKSIRSIPAYLAETLYYAMKGAGTDDHTLIRVMVSRSEIDLFNIRKEFRKNFATSLYSMIKGDTSGDYKKALLLLCGEDD

Key:
Annexin A5 = target: T1, Annexin A5; assay: ELISA for Annexin A5 binding to coated cardiolipins; conditions: lipid 5 ug/ml coated overnight; Annexin A5 0.32-10.24 ug/ml
Protocol: After five washings with PBS, the plates were blocked with 2% PBS-BSA for 2 h at room temperature. Annexin A5 were added and incubated for 1 hour. After washing, bound annexin A5 was detected by incubating subsequently with rabbit anti-human annexin V polyclonal antibodies (Hyphen Biomed, Andresy, France) 1:2000 and polyclonal goat anti-rabbit Immunoglobulins/AP (DakoCytomation) 1:3000 were used. The reaction was developed with alkaline phosphatase substrate (Sigma), and optical density (OD) was read at 405 nm with an ELISA Multiscan Plus spectrophotometer (Molecular Devices Emax, San Francisco). All samples were measured in duplicates and the coefficient of variation was below 15%.

VCAM-1 (CD106) = assay: Adhesion molecule expression by endothelial cells, flow cytometry (VCAM-1); format: cell-based, human; conditions: HUVECs, 24 h
Protocol: (§1) Pooled human umbilical vascular endothelial cells (HUVECs) at passage 2 were purchased from Cascade Biologics, Inc (Portland, Ore). Cultures were maintained in EGM™ phenol red-free medium (Clonetics, San Diego, Calif.), containing 2% of fetal bovine serum and supplements, at 37° C. under humidified 5% CO2 conditions. All experiments were performed at passage 3 to 5. HUVECs were seeded at 6×10^4 cells/2 mL density on 6-well plates (NUNC Inc, Naperville, Ill.). After allowing endothelial cells overnight for attachment, cells were ready for stimulation.
(§2) After washing with PBS, OxCL and reduced CL (20 ug/ml) were added. For annexin A5 (From Bender MedSystems GmbH, Austria) inhibition study, OxCL was incubated with Annexin A5 (10 ug/ml) for half hour before adding to cells. After 24 hours incubation, detached floating cells were washed away, cell were harvested into Falcon FACS tubes. […] The intercellular adhesion molecule (ICAM-1) CD54 and the vascular cell adhesion molecule (VCAM-1) CD106 were studied with flow cytometry analysis equipped with CellQuest software. For each sample, 10,000 events were analyzed.

[1] = test system: THP-1 differentiated macrophages; assay: Uptake of Dil-labeled OxLDL in macrophages, flow cytometry; format: cell-based, human; conditions: competitor 40, 80 ug/ml (LDL 40 ug/ml), Dil-OxLDL 5 ug/ml, 4 hours
Protocol: OxLDL (Industrylane Frederick) were incubated with Dil (Molecular Probes Engene, Oregon, USA) in lipoprotein-deficient serum (Sigma) at 37° C. for 15 hours. Then dialyzed against saline-EDTA buffer for 6 hours.
Uptake of Dil-labelled OxLDL was studied either by Flow cytometry or Fluorescence/confocal microscopy. For microscopy, The macrophages 1×10^6 were grown overnight on culture slides (Nunc, Naperville, N.Y.), For flow cytometry, The macrophages were plated in a 6-well plate at density of 1×10^6 cells/well in DMEM (INVITROGEN, USA) containing 10% FBS overnight. […] Thereafter, the cells from above were washed 4 times with 0.2% BSA/PBS and once with PBS. The cells were harvested in PBS containing 0.1% BSA and 0.01% NaN3. Mean fluorescence intensity was measured by flow cytometry (BD Biosciences, San Jose, Calif., USA). For each sample, fluorescence emission above 550 nm was measured and a minimum of 10.000 cells was analyzed.

CD8-positive T-cells = assay: Activation of CD8-positive T cells (CD69), flow cytometry; format: cell-based; conditions: human PBMC, 5 ug/ml over night
Protocol: Both CD4 and CD8 positive T cells were studied. Quadrant Q2 represent (%) T-cells positive for CD69 expressing and thus activated T-cells.
Both CD4 and CD8 positive T-cells from the cell line Human PBMC where studied in an incubation setup illustrated in FIG. 11A-F. Both T-cell types where incubated with, buffer (control), oxCL or CL to determine the effect on activation, interpreted by the expression of CD69 surface molecule after stimulation.
In this experiment the attention must be drawn to the quadrant Q2 of the flow cytometry data shown. This quadrant represents the percentage of T-cells in the population tested to be CD69 positive, e.g. activated by the stimuli prior to the data collection.

ICAM-1 (CD54) = assay: Adhesion molecule expression by endothelial cells, flow cytometry (ICAM-1); format: cell-based, human; conditions: HUVECs, 24 h
Protocol: as §1, §2

IL-6 = IL-6 production by HUVEC, protein multiplex immunoassay; format: cell-based, human; conditions: HUVECs, 24 h; for IL-6 levels of the substance alone compared with the control group: 20 ug/ml
Protocol: HUVEC cells from above were seeded at density 10^6/2 ml into 6 well plates. Allowing cells attachment for 24 hours, OxCL (20 ug/ml) with or without Annexin A5 (20 ug/ml) and reduced CL were added and incubated for 24 hours. Cell supernatant were collected and IL-6 and IL-8 production were measured with protein multiplex immunoassay kits (from Bioscource, USA) and Bio-PIei™ system (BioRad, USA).

leukotriene B4 = assay: Leukotriene B4 release from neutrophils, EIA; format: cell-based; conditions: human neutrophils
Protocol: (§3) Human PMNs were isolated from freshly prepared buffy coats (Karolinska Hospital blood bank, Stockholm, Sweden) by dextran sedimentation, hypotonic lysis of erythrocytes and gradient centrifugation on Lymphoprep (Axis-Shield PoC AS, Oslo, Norway). PMNs were suspended at a density of 10×10^6/ml in Dulbecco's PBS (Gibco (Invitrogen), Paisley, UK). PMN purity (>95%) and viability (>98%) was determined using Hemacolor (J. T. Baker, Utrecht, Holland) and Trypan Blue (Sigma Chemical Co.) staining, respectively.
(§4) Analysis of leukotriene B4 Biosynthesis by EIA kit 2×10^6 macrophages were incubated with different agents according to the experimental design, and then quenched with an equal volume methanol. After acidified to pH 3-4, the samples were purified by solid-phase extraction (Supelclean™ LC-18, Supelco) and eluted in methanol. After dried under nitrogen, the samples were re-suspended in EIA buffer. The level of LTB4 was determined with LTB4 EIA kit (Cayman Chemical) by using dilutions within the linear portion of the standard curve.

neutrophils = assay: Intracellular calcium mobilization, FURA-2AM fluorometer; format: cell-based, human; conditions: for MFI of calcium mobilization: within 120 seconds
Protocol: as §3
Neutrophils were added into black, 96-well plates with transparent bottom (Corning Costar; 5×10^4 cells/well), and spin down the plate at 120×g for 3 min, afterwards changing the medium containing 4 μM FURA-2AM (Fura-2 acetoxymethyl ester), or buffer as appropriate, and the cells were incubated for 30 min at 37° C. and 5% CO2. Cells were washed four times with 50 μl of a buffer solution (135 mM NaCl, 4.6 mM KCl, 1.2 mM MgCl2, 1.5 mM CaCl2, 11 mM glucose, 11 mM Hepes, pH 7.4) before a final 45 μl volume of buffer was added to each well.
The plates were transferred to a fluorometer (Fluostar™, BMG Technologies), and 50 μl of different agonists according to experimental designs or buffer solution as control were injected into individual wells and the cells were monitored for the next 120 seconds. Control wells containing cells that had not been exposed to FURA-2AM were used to subtract background auto-fluorescence. The results are given as the ratio of mean fluorescence intensity (MFI) between 340 and 380 nm, and normalized by control.

LTB4 = assay: Leukotriene B4 biosynthesis in macrophages, EIA; format: cell-based; conditions: human monocyte-derived macrophages
Protocol: Human mononuclear cells were isolated from freshly prepared buffy coats (Karolinska Hospital blood bank, Stockholm, Sweden) by gradient centrifugation on Ficoll-Paque (Amersham Biosciences, Uppsala, Sweden). The mononuclear cells were cultured at a density of 5×10^6/ml in RPMI-1640 medium with 25 mM Hepes, 1% L-glutamine, 1% penicillin-streptomycin and 10% FBS. After 7 days, there are proximate 2×10^6 macrophages per well.
as §4

[2] = oxCL 20 ug/ml preincubated with Annexin A5 10 ug/ml

| Molecule | binding to Annexin A5 (Annexin A5) | VCAM-1 expression (VCAM-1 (CD106); 20 ug/ml) | competition of dil-oxLDL uptake (in words) [1] | CD69 expression (activation) of CD8-positive T cells (CD8-positive T-cells) | ICAM-1 expression (ICAM-1 (CD54); 20 ug/ml) | IL-6 levels of the substance alone compared with the control group (IL-6) | leukotriene B4 release (leukotriene B4) | MFI of calcium mobilization (neutrophils) | inhibition of oxCL-induced VCAM-1 (CD106) expression (VCAM-1 (CD106); [2]) | inhibition of OxCL-induced LTB4 production (LTB4) | inhibition of oxCL-induced ICAM-1 (CD54) expression (ICAM-1 (CD54); [2]) | IL-6 level, oxCL with Annexin A5 (IL-6; oxCL 20 ug/ml with Annexin A5 20 ug/ml) [pg/mL] | inhibition of oxCL-induced calcium mobilization (neutrophils; oxCL incubated with Annexin A5) |
| --- | --- | --- | --- | --- | --- | --- | --- | --- | --- | --- | --- | --- | --- |
| Cardiolipin [CL] | can bind | did not show the same effect | did not show the competition effetcts | not | did not show the same effect | could not significantly increase | did not show the similar reaction | did not increase | – | – | – | – | – |
| Hydro heart cardiolipin [reduced CL] | could not bind | – | not | – | – | – | – | – | – | – | – | – | – |
| B1 | – | – | – | – | – | could not significantly increase | – | did not increase | significantly inhibited | greatly inhibited | significantly inhibited | 276.4 ± 28.62 | greatly inhibited |
